Laboratory results reported in patent EP0310305B1 (priority 1987, dated 1989).
Read-outs that look alike come from different tables or passages of the source.

What was measured:
Ileum = assay: tissue or blood; details: Rattus norvegicus
[1] = tested on: male rats (Crj Wister Rat; 180 - 240 g); assay: animal or person; type: in vivo; details: for ED50: Rattus norvegicus, 0.5 h; for Entero-pooling ED₅₀: rat, in vivo, 30 min
Male Crj Wister rats = assay: animal or person; type: in vivo; details: Rattus norvegicus, po, 6 h, read-out: Cathartic Effect ED50
healthy male volunteers = details: human, in vivo, po
[2] = read-out: Intestinal Contraction
[3] = read-out: Intestinal Contrac-tion

Row | Compound | EC50 (Ileum; [2]) [µM] | ED50 ([1]; read-out: Entero-pooling ED₅₀) [mg/kg] | also measured
1 | CCCCC(F)C(=O)/C=C/[C@H]1[C@H](O)CC(=O)[C@@H]1C/C=C\CCCC(=O)O (stereo partly shown) [Test Drug 6, 15-keto-16R,S-fluoro-PGE₂] | 1 to 100 | – | ED50 ([1]; read-out: Enteropooling ED₅₀): 0.002 mg/kg
2 | CCCCC(F)C(=O)CC[C@H]1[C@H](O)CC(=O)[C@@H]1C/C=C\CCCC(=O)OCC (stereo partly shown) [Test Drug 4, 13,14-dihydro-15-keto-16R,S-fluoro-PGE₂ ethyl ester] | 1 to 100 | – | ED50 ([1]; read-out: Enteropooling ED₅₀): 0.002 mg/kg
3 | CCCCC(F)C(=O)CC[C@H]1[C@H](O)CC(=O)[C@@H]1C/C=C\CCCC(=O)OC (stereo partly shown) [Test Drug 2, 13,14-dihydro-15-keto-16R,S-fluoro-prostaglandin] | – | – | ED50 (Male Crj Wister rats): 0.8 mg/kg; abnormality or malaise in belly at 8 hours after administration (healthy male volunteers): no particular abnormality nor malaise in belly; clinical observation (healthy male volunteers): no abnormality; other side effects (healthy male volunteers): no one complained of other side effects such as bellyache; EC50 (Ileum; [3]): 1 to 100 µM; ED50 ([1]; read-out: Entero-pooling ED50): 0.003 mg/kg
4 | CCCCCCC(F)C(=O)CC[C@@H]1[C@@H](C/C=C\CCCC(=O)O)[C@@H](O)C[C@H]1O (stereo partly drawn) [Test Drug 16, 13,14-dihydro-15-keto-20-ethyl-16R,S-fluoro-PGF₂α] | > 100 | 0.7 | –
5 | CCCCCCC(F)C(=O)CC[C@@H]1[C@@H](C/C=C\CCCC(=O)OC)[C@@H](O)C[C@H]1O (stereo partly drawn) [Test Drug 17, 13,14-dihydro-15-keto-20-ethyl-16R,S-fluoro-PGF₂α methyl ester] | 1 to 100 | 0.6 | –
6 | CCCCC(F)C(=O)/C=C/[C@H]1[C@H](O)CC(=O)[C@@H]1C/C=C\CCCC(=O)OC (stereo partly shown) [Test Drug 7, 15-keto-16R,S-fluoro-PGE₂ methyl ester] | 1 to 100 | – | ED50 ([1]; read-out: Enteropooling ED₅₀): 0.002 mg/kg
7 | CCCCC(F)C(=O)CC[C@@H]1[C@@H](C/C=C\CCCC(=O)OC)[C@@H](O)C[C@H]1O (stereo partly drawn) [Test Drug 13, 13,14-dihydro-15-keto-16R,S-fluoro-PGF₂α methyl ester] | – | 0.14 | –
8 | CCCCC(F)(F)C(=O)CC[C@H]1[C@H](O)CC(=O)[C@@H]1C/C=C\CCCC(=O)OC [Test Drug 8, 13,14-dihydro-15-keto-16,16-difluoro-PGE₂ methyl ester] | 1 to 100 | – | ED50 ([1]; read-out: Enteropooling ED₅₀): 0.0002 mg/kg
9 | CCCCC(F)C(=O)CC[C@@H]1[C@@H](C/C=C\CCCC(=O)O)[C@@H](O)C[C@H]1O (stereo partly drawn) [Test Drug 12, 13,14-dihydro-15-keto-16R,S-fluoro-PGF₂α] | > 100 | 0.2 | –
10 | 13,14-dihydro-15-keto-16R,S-fluoro-Δ²-PGA₁ [Test Drug 9] | – | – | Entero-pooling ED₅₀ [1]: 0.2 mg/kg
11 | 13,14-dihydro-15-keto-16R,S-fluoro-Δ²-PGA₁ methyl ester [Test Drug 10] | – | – | Entero-pooling ED₅₀ [1]: 0.2 mg/kg
12 | CCCCC[C@H](O)/C=C/[C@H]1[C@H](O)CC(=O)[C@@H]1C/C=C\CCCC(=O)O [Test Drug 1, Prostaglandin E2, reference compound] | – | – | ED50 (Male Crj Wister rats): > 10 mg/kg; EC50 (Ileum; [3]): < 1 µM; ED50 ([1]; read-out: Entero-pooling ED50): 0.13 mg/kg
13 | CCCCCC(F)C(=O)CC[C@@H]1[C@@H](C/C=C\CCCC(=O)OC)[C@@H](O)C[C@H]1O (stereo partly drawn) [Test Drug 15, 13,14-dihydro-15-keto-16R,S-fluoro-20-methyl-PGF₂α methyl ester] | 1 to 100 | 0.3 | –
14 | CCCCC[C@H](O)/C=C/[C@H]1C=CC(=O)[C@@H]1CCCCCCC(=O)O [Test Drug 11, PGA₁, reference compound] | – | 4 | –
15 | CCCCC(F)(F)C(=O)CC[C@@H]1[C@@H](C/C=C\CCCC(=O)OC)[C@@H](O)C[C@H]1O [Test Drug 14, 13,14-dihydro-15-keto-16,16-difluoro-PGF₂α methyl ester] | 1 to 100 | 0.2 | –
16 | CCCCC(F)C(=O)/C=C/[C@@H]1[C@@H](C/C=C\CCCC(=O)OC)[C@@H](O)C[C@H]1O (stereo partly drawn) [Test Drug 18, 15-keto-16-R,S-fluoro-PGF₂α methyl ester] | > 100 | 0.15 | –
17 | CCCCC[C@H](O)/C=C/[C@@H]1[C@@H](C/C=C\CCCC(=O)O)[C@@H](O)C[C@H]1O [Test Drug 19, PGF₂α, reference compound] | < 1 | 4.9 | –
18 | CCCCCC(F)C(=O)CC[C@H]1[C@H](O)CC(=O)[C@@H]1C/C=C\CCCC(=O)OC (stereo partly shown) [Test Drug 5, 13,14-dihydro-15-keto-16R,S-fluoro-20-methyl-PGE₂ methyl ester] | 1 to 100 | – | ED50 ([1]; read-out: Enteropooling ED₅₀): 0.002 mg/kg
